The results in this text go back to paper PMC7034072, “Discovery of small molecule inhibitors of Leishmania braziliensis Hsp90 chaperone” (Journal of Enzyme Inhibition and Medicinal Chemistry, 2020).

A word on the IC50: it is the concentration at which inhibition is half-maximal. A low value points to greater potency in that assay. For orientation: ΔTm means the change in melting temperature against a reference sample.

Assay [1] relates to promastigote form of L. braziliensis. Put plainly: Cell viability assay (MTT/PMS), single concentration. The format is cell-based. Particulars: L. braziliensis promastigotes; for Cell viability / reduced cell viability: 200 μM/well; for Cell viability: MTT/PMS, Yes = leishmanicidal activity; for reduced cell viability: after 72 h. As to the method: The leishmanicidal activity of the compounds was tested in vitro against the promastigote form of L. braziliensis applying 200 μM/well, (with a total of 0.5% DMSO) into 90 μL of culture. The concentration of L. braziliensis (MHOM/BR/1973/M2269) was adjusted to 10^7 cells/mL. Amphotericin (100 μM/well) was used as positive control, and 0.5% DMSO as negative control.
The plates were incubated at room temperature (RT) for 72 h. After this period, the viability of the promastigotes was verified via MTT (3–(4, 5-Dimethylthiazol-2-yl)-2, 5-Diphenyltetrazolium Bromide) colorimetric assay. MTT/PMS 11.1 μL/well solution (MTT = 5 mg/mL; Phenazine methosulfate-PMS = 0.22 mg/mL) was added, and the plate was incubated at RT for 4 h, at 150 RPM, protected from light. Formazan crystals were then solubilised by adding 100 μL/well of a solubilisation solution containing 7% SDS, 10 mM HCl and 30% DMSO. The mixture was incubated at RT for 90 min at 150 RPM protected from light. Wells containing the medium and the compounds or DMSO without MTT were used as blank controls. The absorbance was quantified in a plate reader (Biotek Synergy HT) at 570 nm.
The cell viability percentages were calculated by the following equation: (1) Cell viability %= AT−AB/AU−AB ×100 where AT was an averaged absorbance from treated samples, AB blank absorbance and AU was an averaged absorbance from negative control.

Assay [2] relates to LbHsp90 and LbHsp90N recombinant proteins. Put plainly: Differential scanning fluorimetry (thermal shift assay). The format is binding, L. braziliensis. Particulars: DSF; for Thermal shift: inclusion criterion Tm variation greater or equal to ± 2 °C in LbHsp90 or LbHsp90N, Yes/No. As to the method:
The interaction of Hsp90 proteins with different compounds was monitored through the melting temperature (Tm) of each protein in the presence of a fixed concentration of the target compound by differential scanning fluorimetry (DSF) also referred as thermal shift assay. A final concentration of 10 µM of dimeric LbHsp90 and 20 µM of monomeric LbHsp90N in 40 mM Hepes buffer (pH 7.5) containing 100 mM KCl were used. The DMSO concentration in each sample was fixed at 2.5% (v/v). Prior to the readings, the samples were incubated for 30 min on ice. The fluorophore Sypro Orange (Life Technologies) was used as fluorescent probe. The experiments were performed at a thermocycler CFX96 Touch Real Time PCR Detection System (BioRad) and the data were analysed using the CFX Manager software (BioRad). As positive controls, 100 µM of GA and Radicicol (RDC) were used.
Background: DSF heats the sample and reads unfolding from a dye or from intrinsic fluorescence.

Assay [3] deals with Balb-c 3T3 clone A31 mouse fibroblasts. Put plainly: Cytotoxic assay (MTT). The format is cell-based. The following applies: Balb-c 3T3 mouse fibroblasts, 72 h, 37 °C. Here is the method: Compounds cytotoxicity was evaluated in 100 μL of Balb-c 3T3 cone A31 mouse fibroblasts (10^5 cells/mL) into a 96-well plate, incubated for 24 h at 37 °C to become adhered. After this period, the medium was washed and 100 μL of each compound was added to the culture medium (concentration ranging from 1 to 200 μM/well, with a total of 0.5% DMSO) in quadruplicate. Rapamycin was used as a positive control, and 0.5% DMSO was used as negative control. The plates were incubated for 72 h at 37 °C. After this, the viability of Balb-c 3T3 cells was evaluated by MTT colorimetric assay, as described previously.

Assay [4] has as its system promastigote forms of L. braziliensis. Put plainly: In vitro IC50 determination (leishmanicidal activity, MTT/PMS). It is filed as cell-based. The following applies: promastigotes, 72 h, RT. As to the method:
Amphotericin 100 μM/well and 0.5% DMSO were used as positive and negative control, respectively. The plates were incubated at RT for 72 h. After this, the viability of the promastigotes was verified by MTT/PMS colorimetric assay, as described above. In vitro leishmanicidal activity, expressed as IC50, was determined using GraphPad Prism 5 software according to the following equation: (2) y= Amin + Amax−Amin/1+10^logIC50 −x*Hillslope where Amin and Amax are, respectively, the minimum and maximum activities obtained, x is the ligand concentration and Hill Slope is the parameter that describes the steepness of the curve.
The selectivity index parameter was obtained by the ratio of compound IC50 against mammalian cells and compound IC50 against promastigote cells.

The target in assay [5] is T1, hHsp90β (Homo sapiens, UniProt P08238).
T1 construct: made in house; host or cells: Escherichia coli BL21(DE3)
The experiment in a line: Tryptophan fluorescence quenching interaction assay. The format is binding. Here is the method:
(§1) Two µM of protein in 40 mM Hepes buffer (pH 7.5), 100 mM KCl, was incubated for 30 min on ice with increasing concentrations of the compounds diluted in DMSO. […] The samples were excited at 280 nm and the emission was collected in the 300–400 nm range, in a 1.0 × 0.2 cm optical path cuvette, on an F-4500 Fluorescence Spectrophotometer (Hitachi). The fluorescence quenching was analysed at the maximum emission wavelength in the absence of ligand. The determination of the apparent dissociation constant (KDapp) was performed by fitting the fluorescence values obtained for each compound concentration according to a dose-response model through the Equation (3): (3) y = Fmin + (Fmax−Fmin)/(1+10^(logKD− [ligand])) where Fmin and Fmax are the minimum and maximum fluorescence intensity and [ligand] is the compound concentration used in the assay, according to the GraphPad Prism 5 software. The fluorescence intensities were corrected by inner filter effects as previously described.

In assay [6] the target is LbHsp90 (Leishmania braziliensis, UniProt A4HL70). The description is as above. The format is binding. Here is the method: as §1
For assay [7], the target named is T2, hHsp90βN (Homo sapiens, UniProt P08238).
T2 construct: N-terminal domain construct (Hsp90βN – residues 1–223); His-tag (cleaved yes); made in house; host or cells: Escherichia coli BL21(DE3)
The assay is described as above. It is filed as binding. The following applies: N-terminal domain. Here is the method: as §1

Assay [8] has as its target T1, hHsp90β. Put plainly: ATPase activity inhibition assay (EnzChek Pi quantification). It is filed as biochemical. The following applies: 50 μM compound, 2 μM enzyme, 2.5 mM ATP. Here is the method:
The ATPase activity of LbHsp90 and hHsp90β was evaluated spectrophotometrically through inorganic phosphate (Pi) quantification following ATP hydrolysis, by the EnzChek™ assay kit (Invitrogen®) as previous described[31]^,[34]. Briefly, a 2 µM solution of LbHsp90 and hHsp90β enzymes was prepared in 150 mM NaCl, 5 mM MgCl2 and 20 mM Tris-HCl, pH 7.5, and incubated with ATP (concentration range 0–5 mM) for 60 min at 37 °C. Then, the chromogenic substrate 2-amino-6-mercapto 7-methyl purine riboside (MESG) and the purine nucleoside phosphorylase (PNP) were added and the resulting reaction mixture was incubated for 30 min at 37 °C. The assays were performed in a 96-well plate and kinetic parameters determined by Michaelis–Menten fitting using GraphPad Prism 6 software.
Initial screenings were performed using 50 μM compound concentration in a reaction mixture consisting of 2 μM enzyme and 2.5 mM ATP. After 1 h incubation at 37 °C, MESG and PNP were added. The amount of Pi was estimated after 30 min incubation at 37 °C. […] A compound concentration ranging from 1 to 75 μM was included in the reaction mixture and Pi quantification performed as previously described (measurements were performed in triplicate). IC50 values were determined by non-linear regression data fitting (using GraphPad Prism 6 software).

Where only a bound is given, the exact number is not on record here.

T1 sequence (P08238 whole entry): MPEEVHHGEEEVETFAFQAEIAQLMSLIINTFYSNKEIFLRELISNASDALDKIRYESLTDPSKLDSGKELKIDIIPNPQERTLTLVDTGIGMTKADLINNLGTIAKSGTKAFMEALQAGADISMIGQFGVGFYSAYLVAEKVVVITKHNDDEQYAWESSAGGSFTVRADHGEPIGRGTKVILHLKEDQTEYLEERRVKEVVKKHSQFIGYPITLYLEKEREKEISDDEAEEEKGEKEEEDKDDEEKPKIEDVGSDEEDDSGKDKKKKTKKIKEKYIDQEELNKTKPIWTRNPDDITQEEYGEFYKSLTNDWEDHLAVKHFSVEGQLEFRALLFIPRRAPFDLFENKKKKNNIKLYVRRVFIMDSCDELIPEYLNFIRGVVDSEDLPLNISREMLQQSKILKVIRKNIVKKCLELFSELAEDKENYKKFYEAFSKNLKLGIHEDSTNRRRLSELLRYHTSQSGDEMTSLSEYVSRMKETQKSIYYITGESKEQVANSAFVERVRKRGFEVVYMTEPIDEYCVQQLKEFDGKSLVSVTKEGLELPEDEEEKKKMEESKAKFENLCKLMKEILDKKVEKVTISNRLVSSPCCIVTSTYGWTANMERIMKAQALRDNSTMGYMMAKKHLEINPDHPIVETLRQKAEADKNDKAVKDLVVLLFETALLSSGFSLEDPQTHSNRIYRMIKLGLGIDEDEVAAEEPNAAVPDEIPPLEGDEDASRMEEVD
T2 sequence (P08238 1-223): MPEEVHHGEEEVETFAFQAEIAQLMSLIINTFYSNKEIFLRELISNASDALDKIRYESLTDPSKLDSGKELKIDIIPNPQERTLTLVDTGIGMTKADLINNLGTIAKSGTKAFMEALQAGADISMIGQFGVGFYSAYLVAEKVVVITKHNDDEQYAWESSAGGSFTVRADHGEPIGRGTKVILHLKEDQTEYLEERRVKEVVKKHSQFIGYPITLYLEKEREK
Chain of LbHsp90 (A4HL70 entry or part of it): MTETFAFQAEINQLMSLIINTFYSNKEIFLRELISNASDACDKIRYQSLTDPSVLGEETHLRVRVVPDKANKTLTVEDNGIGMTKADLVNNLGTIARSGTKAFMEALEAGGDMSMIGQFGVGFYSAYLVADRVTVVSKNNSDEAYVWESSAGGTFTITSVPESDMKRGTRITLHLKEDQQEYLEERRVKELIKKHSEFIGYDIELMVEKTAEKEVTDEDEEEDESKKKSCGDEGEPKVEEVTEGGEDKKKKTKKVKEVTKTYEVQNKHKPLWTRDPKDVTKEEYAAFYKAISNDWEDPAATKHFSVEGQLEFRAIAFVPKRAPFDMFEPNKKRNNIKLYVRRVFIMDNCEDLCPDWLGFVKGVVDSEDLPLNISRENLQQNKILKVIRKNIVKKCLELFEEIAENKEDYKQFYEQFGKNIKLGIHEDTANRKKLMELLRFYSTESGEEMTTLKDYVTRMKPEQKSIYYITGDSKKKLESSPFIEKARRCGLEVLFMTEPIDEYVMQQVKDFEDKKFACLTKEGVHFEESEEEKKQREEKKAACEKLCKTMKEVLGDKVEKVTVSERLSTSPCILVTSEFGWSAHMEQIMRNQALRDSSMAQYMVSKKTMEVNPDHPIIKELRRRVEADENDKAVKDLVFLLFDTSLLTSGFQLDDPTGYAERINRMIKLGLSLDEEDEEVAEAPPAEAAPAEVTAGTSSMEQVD

For `C[C@@H]1[C@H](O)[C@@H](C)/C=C/C=C/C=C/C=C/C=C/C=C/C=C/[C@H](O[C@@H]2O[C@H](C)[C@@H](O)[C@H](N)[C@@H]2O)C[C@@H]2O[C@](O)(C[C@@H](O)C[C@@H](O)[C@H](O)CC[C@@H](O)C[C@@H](O)CC(=O)O[C@H]1C)C[C@H](O)[C@H]2C(=O)O` [Amphotericin, reference compound], the killing activity result in assay [1] (positive control, 100 μM/well, 72 h) is recorded as “more than 95%”.
Consider `NC(=O)c1ccc(-c2nccc3occc23)cc1` [Glb01], for which the Thermal shift entry in assay [2] is “No”. Also, the Cell viability result in assay [1] (72 h) is listed as “No”.
On to `CCC(=O)NCc1cccc(-c2ccnc3[nH]ccc23)c1` [Glb02], for which the Thermal shift result in assay [2] was “positive outcomes and Yes”. Further, the Cell viability result in assay [1] (72 h) is “No”.
Consider `NC(=O)Nc1cccc(C(=O)OCc2ccccc2C(F)(F)F)c1` [Glb04], for which, in assay [2], the Thermal shift entry is “No”. The Cell viability result in assay [1] (72 h) is listed as “No”.
Take `NC(=O)c1ccc(C(=O)N2CCc3ccccc32)cc1` [Glb05]: the Thermal shift entry in assay [2] is recorded as “No”. The Cell viability result in assay [1] (72 h) is reported as “No”.
Regarding `CS(=O)(=O)N1CCN(c2ccc(C(N)=O)cc2)CC1` [Glb06], in assay [2], the Thermal shift entry is “No”. In addition, the Cell viability result in assay [1] (72 h) is reported as “No”.
In the case of `NC(=O)c1cn(Cc2cccc3cccnc23)nc1-c1ccccc1` [Glb07], the Thermal shift result in assay [2] is given as “No”. Besides, in assay [1] (72 h), the Cell viability entry is “No”.
In the case of `CC(C)(C)c1cc(CSC(=N)N)cc(C(C)(C)C)c1O` [Glb11], the Thermal shift result in assay [2] was “positive outcomes and Yes”. Also, the Cell viability result in assay [1] (72 h) was “No”.
In the case of `Nc1nc(Cc2ccccc2)n[nH]1` [Glb12], in assay [2], the Thermal shift entry is “No”. For the same compound, the Cell viability result in assay [1] (72 h) is “No”.
With `Cn1cc(-c2ccc(F)cc2)c2nc[nH]c(=O)c21` [Glb13], the Thermal shift entry in assay [2] was “No”. Moreover, in assay [1] (72 h), the Cell viability entry was “No”.
In the case of `N=C(N)NCc1cn(-c2ccccc2)nc1-c1ccccc1` [Glb14], the IC50 was above 200 µM in assay [3] and 30 ± 1 µM in assay [4]. Also, in assay [2], the Thermal shift result is “No”. The Cell viability entry in assay [1] (72 h) is “Yes”. In assay [1], the reduced cell viability entry is listed as “more than 60%”.
As for `N=C(N)NCc1ccc(Oc2ccc(F)cc2)cc1` [Glb16], the IC50 in assay [3] came to 23 ± 1 µM; in assay [4], 12 ± 2 µM. The Thermal shift entry in assay [2] is “positive outcomes and Yes”. Also, the Cell viability result in assay [1] (72 h) is “Yes”. Further, in assay [1], the reduced cell viability result is listed as “more than 60%”.
On to `Cc1cccc(Oc2ccccc2CNC(=N)N)c1` [Glb17], for which the “KDapp hHsp90β” value in assay [5] (full-length, tryptophan fluorescence quenching) is “Ambiguous^#”. Besides, the “tryptophan fluorescence quenching (qualitative)” value in assay [5] (hHsp90β constructions) and in assay [6] (LbHsp90 constructions) was “did not induce tryptophan fluorescence quenching” in each case. Further, the “KDapp hHsp90βN” value in assay [7] is “Ambiguous^#”. The IC50 in assay [3] worked out at 58 ± 1 µM; in assay [4], 4 ± 1 µM. For the same compound, in assay [2], the Thermal shift entry is given as “No”. The Cell viability result in assay [1] (72 h) is recorded as “Yes”. Moreover, in assay [1], the reduced cell viability result is on record as “more than 60%”.
For the compound `N=C(N)SCc1cc(=O)oc2cc3c(cc12)CCC3` [Glb18], the Thermal shift result in assay [2] was “No”. Further, the Cell viability entry in assay [1] (72 h) is given as “No”.
For `N=C(N)SCc1cccc(OCC(N)=O)c1` [Glb19], in assay [2], the Thermal shift entry was “No”. Besides, in assay [1] (72 h), the Cell viability entry is given as “No”.
With `COc1ccc(C2(CNC(=N)N)CC2)cc1` [Glb20], in assay [2], the Thermal shift entry is “No”. Besides, the Cell viability result in assay [1] (72 h) is “No”.
For the compound `N=C(N)Nc1nc(-c2ccccc2)c(CC(=O)O)s1` [Glb21], in assay [2], the Thermal shift result was “No”. In addition, the Cell viability entry in assay [1] (72 h) is “No”.
Take `N=C(N)SCc1ccc(C(=O)O)cc1` [Glb22]: the Thermal shift entry in assay [2] is “No”. Moreover, in assay [1] (72 h), the Cell viability entry is given as “No”.
With `Cn1c(CSC(=N)N)c(Cl)c(=O)n1-c1ccccc1` [Glb24], the Thermal shift entry in assay [2] is given as “No”. The Cell viability result in assay [1] (72 h) is “No”.
With `Cc1cc(CSC(=N)N)cc(C(C)(C)C)n1` [Glb26], in assay [2], the Thermal shift result is “No”. Besides, the Cell viability result in assay [1] (72 h) was “No”.
Turning to `N=C(N)NN=Cc1ccc2cccc(OCc3ccccc3)c2n1` [Glb27], the Kd turned out to be 5 ± 4 µM in assay [5] (full-length, tryptophan fluorescence quenching, read-out: KDapp hHsp90β); 7 ± 1 µM in assay [6] (full-length, tryptophan fluorescence quenching, read-out: KDapp LbHsp90); 6 ± 2 µM in assay [7] (read-out: KDapp hHsp90βN). For the same compound, the “percentage inhibition of hHsp90β ATPase activity” value in assay [8] is recorded as “lower than 60%”. The IC50 in assay [3] came out at 13 ± 2 µM; in assay [4], 11 ± 1 µM. In assay [2], the Thermal shift entry was “positive outcomes and Yes”. Besides, in assay [1] (72 h), the Cell viability result is “Yes”. Further, the reduced cell viability entry in assay [1] was “more than 60%”.
Consider `N=C(N)NCc1nn(Cc2ccccc2)c(=O)c2ccccc12` [Glb28], for which the Thermal shift result in assay [2] is “No”.
Turning to `C[C@@H]1C[C@H]2O[C@@H]2/C=C\C=C\C(=O)Cc2c(Cl)c(O)cc(O)c2C(=O)O1` [RDC, Radicicol, reference compound], the ΔTm in assay [2] (100 µM positive controls, protein stabilisation) is above 2.0 °C.
